# Data published in patent US20250186408A1, “TREATMENT OF PHARMACORESISTANT EPILEPSY” (Katholieke Universiteit Leuven, priority 2021, published 2025).
# Where two headings read alike, the source gives them in different places.
# Tests used:
# EDNRA = biological target: T1, EDNRA (Homo sapiens, UniProt P25101); assay: Calcium Flux EDNRA Agonist; format: cell-based; conditions: for EC50: read-out: RC50, result type EC50; for Emax: read-out: Max response
# T1 sequence (P25101 21-427): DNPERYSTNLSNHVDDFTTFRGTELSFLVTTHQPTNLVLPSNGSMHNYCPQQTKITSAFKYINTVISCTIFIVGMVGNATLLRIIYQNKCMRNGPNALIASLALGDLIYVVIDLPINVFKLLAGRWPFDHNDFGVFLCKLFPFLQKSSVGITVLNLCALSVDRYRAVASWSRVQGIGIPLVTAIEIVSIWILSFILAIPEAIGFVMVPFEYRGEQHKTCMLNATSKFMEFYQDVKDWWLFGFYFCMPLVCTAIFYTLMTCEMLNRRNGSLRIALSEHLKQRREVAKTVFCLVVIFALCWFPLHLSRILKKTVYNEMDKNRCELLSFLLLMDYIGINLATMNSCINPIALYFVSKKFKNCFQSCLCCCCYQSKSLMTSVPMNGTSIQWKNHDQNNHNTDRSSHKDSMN
# Description: (≤0.2% DMSO concentration). Assays were performed in 1× dye loading buffer consisting of 1× Dye (DiscoverX, Calcium No Wash^PLUS kit, Catalog No. 90-0091), 1× Additive A and 2.5 mM Probenecid in HBSS/20 mM HEPES. Probenecid was prepared fresh. Prior to testing, media was aspirated from cells and replaced with 25 μL dye loading buffer. Cells were incubated for 45 min at 37° C. and then 20 min at RT. For agonist determination, 25 μL of 2× compound in HBSS/20 mM HEPES was added using a FLIPR Tetra (MDS). […] 25 μL of 2× sample was added and cells were incubated for 30 min at RT in the dark to equilibrate plate temperature. After incubation, antagonist determination was initiated by addition of 25 μL of 1× compound with 3×EC80 agonist using FLIPR. For both agonist and antagonist formats, activity was measure on a FLIPR Tetra (MDS). Calcium mobilization was monitored for 2 min with a 5 sec baseline read.
# FLIPR read—Area under the curve, was calculated for the entire 2 min read.
# GABAA = GABAA (Homo sapiens, UniProt P14867+P18507+P47870); assay: Ion Channel GABAA Blocker; format: cell-based; conditions: read-out: Max response
# Chain of GABAA (P14867 28-456): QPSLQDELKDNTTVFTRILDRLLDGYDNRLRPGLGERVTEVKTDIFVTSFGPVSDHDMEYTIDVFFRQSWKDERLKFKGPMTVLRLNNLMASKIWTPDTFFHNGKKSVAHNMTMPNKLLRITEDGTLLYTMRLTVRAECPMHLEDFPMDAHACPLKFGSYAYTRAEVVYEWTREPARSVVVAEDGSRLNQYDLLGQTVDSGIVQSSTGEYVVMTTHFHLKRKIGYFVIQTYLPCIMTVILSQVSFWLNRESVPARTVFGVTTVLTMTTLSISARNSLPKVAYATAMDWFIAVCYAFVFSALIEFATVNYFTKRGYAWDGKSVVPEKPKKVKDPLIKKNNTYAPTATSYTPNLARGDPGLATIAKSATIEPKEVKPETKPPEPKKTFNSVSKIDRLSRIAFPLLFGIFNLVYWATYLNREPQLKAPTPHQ
# Chain of GABAA (P47870 26-512): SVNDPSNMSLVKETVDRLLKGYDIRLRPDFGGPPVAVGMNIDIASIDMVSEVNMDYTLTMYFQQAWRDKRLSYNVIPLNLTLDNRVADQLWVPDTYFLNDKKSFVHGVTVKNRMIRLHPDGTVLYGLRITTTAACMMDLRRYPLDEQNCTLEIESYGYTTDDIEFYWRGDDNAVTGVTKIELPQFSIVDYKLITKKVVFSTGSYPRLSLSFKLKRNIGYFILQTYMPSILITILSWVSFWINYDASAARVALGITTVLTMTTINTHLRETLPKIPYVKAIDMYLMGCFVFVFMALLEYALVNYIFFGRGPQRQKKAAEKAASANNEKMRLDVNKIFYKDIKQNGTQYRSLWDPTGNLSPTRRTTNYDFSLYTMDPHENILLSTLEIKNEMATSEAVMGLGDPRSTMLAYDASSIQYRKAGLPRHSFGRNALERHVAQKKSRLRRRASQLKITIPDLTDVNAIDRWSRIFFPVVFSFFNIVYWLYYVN
# Chain of GABAA (P18507 40-475): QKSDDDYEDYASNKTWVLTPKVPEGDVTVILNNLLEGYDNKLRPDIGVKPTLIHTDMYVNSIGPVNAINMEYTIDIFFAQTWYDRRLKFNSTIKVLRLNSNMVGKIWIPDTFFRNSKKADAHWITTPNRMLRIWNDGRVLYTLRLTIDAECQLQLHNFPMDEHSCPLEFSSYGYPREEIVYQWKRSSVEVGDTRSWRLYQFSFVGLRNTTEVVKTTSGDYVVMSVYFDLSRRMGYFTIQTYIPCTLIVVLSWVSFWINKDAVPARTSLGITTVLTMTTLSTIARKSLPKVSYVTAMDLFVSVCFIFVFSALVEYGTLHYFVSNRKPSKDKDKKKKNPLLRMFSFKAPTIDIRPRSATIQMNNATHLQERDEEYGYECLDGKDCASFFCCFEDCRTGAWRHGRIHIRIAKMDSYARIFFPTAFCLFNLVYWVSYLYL
# PDE4D2 = biological target: T2, PDE4D2 (Homo sapiens, UniProt Q08499); assay: Enzymatic PDE4D2 Inhibitor; format: biochemical; conditions: for IC50: read-out: RC50, result type IC50; for Emax: read-out: Max response
# T2 construct: purchased Signal Chem
# T2 sequence (Q08499 303-809 limits assumed): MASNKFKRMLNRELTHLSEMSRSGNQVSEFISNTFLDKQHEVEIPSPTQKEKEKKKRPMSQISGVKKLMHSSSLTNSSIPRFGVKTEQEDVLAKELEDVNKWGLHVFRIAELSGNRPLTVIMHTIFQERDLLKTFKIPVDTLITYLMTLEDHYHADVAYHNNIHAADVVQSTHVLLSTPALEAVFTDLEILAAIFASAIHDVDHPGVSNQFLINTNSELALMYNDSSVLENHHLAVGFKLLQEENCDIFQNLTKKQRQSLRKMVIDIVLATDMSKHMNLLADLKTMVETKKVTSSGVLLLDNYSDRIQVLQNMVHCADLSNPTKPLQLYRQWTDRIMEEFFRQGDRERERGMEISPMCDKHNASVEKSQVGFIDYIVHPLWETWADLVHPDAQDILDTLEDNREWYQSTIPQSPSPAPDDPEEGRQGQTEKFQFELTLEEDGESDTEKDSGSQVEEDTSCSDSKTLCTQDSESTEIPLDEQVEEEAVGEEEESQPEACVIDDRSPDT
# Description: Enzyme preparations were sourced from various vendors-AChE (R&D Systems), COX1 and COX2 (BPS Bioscience), MAOA (Sigma), PDE3A and PDE4D2 (Signal Chem). AChE: enzyme and test compound were pre-incubated for 15 min at RT before substrate addition. Acetylthiocholine and DTNB were added and incubated at RT for 30 min. Signal was detected by measuring absorbance at 405 nm. COX1 and COX2: enzyme stocks were diluted in assay buffer (40 mM Tris-HCl, 1×PBS, 0.5 mM Phenol, 0.01% Tween 20 and 10 nM Hematin) and allowed to equilibrate with compounds at RT for 30 min (binding incubation). Arachidonic acid (1.7 μM) and Ampliflu Red (2.5 μM) were prepared and dispended into a reaction plate. Plates were read immediately on a fluorimeter with the emission detection at 590 nm and excitation wavelength 544 nm. MAOA: enzyme and test compound were pre-incubated for 15 min at 37° C. before substrate addition. The reaction was initiated by addition of kynuramine and incubated at 37° C. for 30 min. The reaction was terminated by addition of NaOH. The amount of 4-hydroquinoline formed was determined through spectrofluorometric readout with the emission detection at 380 nm and excitation wavelength 310 nm. PDE3A and PDE4D2: enzyme and test compound were pre-incubated for 15 min at RT before substrate addition. cAMP substrate (at a concentration equal to EC80) was added and incubated at RT for 30 min. Enzyme reaction was terminated by addition of 9 mM IBMX. Signal was detected using the HitHunter® cAMP detection kit. Microplates were transferred to a PerkinElmer Envision™ instrument and read out as described for each assay. […] For enzyme activity assays, percentage inhibition was calculated using the following equation: […]
# OPRM1 = OPRM1 (Homo sapiens, UniProt P35372); assay: cAMP OPRM1 Agonist; conditions: for Emax: OPRM1, read-out: Max response
# Chain of OPRM1 (P35372 whole entry): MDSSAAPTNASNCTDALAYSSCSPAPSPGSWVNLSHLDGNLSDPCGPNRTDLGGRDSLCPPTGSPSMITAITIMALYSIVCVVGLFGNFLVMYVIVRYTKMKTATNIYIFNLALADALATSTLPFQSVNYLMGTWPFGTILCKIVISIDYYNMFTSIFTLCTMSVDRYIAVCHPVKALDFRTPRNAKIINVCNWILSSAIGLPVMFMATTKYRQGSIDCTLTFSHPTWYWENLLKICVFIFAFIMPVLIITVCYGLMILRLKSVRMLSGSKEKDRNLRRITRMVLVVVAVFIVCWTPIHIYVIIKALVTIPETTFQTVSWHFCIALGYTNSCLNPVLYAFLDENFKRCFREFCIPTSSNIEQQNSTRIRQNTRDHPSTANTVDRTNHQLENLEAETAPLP
# Description: In vitro pharmacological profiling of compounds was done against 78 functional assays for 47 common off-targets (30) by Eurofins DiscoverX Corporation (Fremont, CA, USA) using their SAFETYscan E/IC50 ELECT service (Cat Ref 87-1003DR, Safety47 Panel Dose Response). […] Compounds were tested in a range of 10 concentrations, following a 3-fold serial dilution, starting from 10 μM.
# cAMP Hunter cell lines were expanded from freezer stocks. Prior to testing, cells were seeded in a total volume of 20 μL into white walled 384-well microplates and incubated at 37° C. cAMP modulation was determined using the DiscoverX HitHunter cAMP XS+ assay. For Gs agonist determination, cells were incubated with sample to induce response. For Gi agonist determination, cells were incubated with sample in the presence of EC80 forskolin to induce response. For both conditions, media was aspirated from cells and replaced with 15 μL 2:1 HBSS/10 mM HEPES:cAMP XS+ Ab reagent. Intermediate dilution of sample stocks was performed to generate 4× sample in assay buffer (containing 4×EC80 forskolin in the case of antagonist determination). 5 μL of 4× sample was added to cells and incubated at 37° C. or room temperature (RT) for 30 or 60 min. Final assay vehicle concentration was 1%. For antagonist determination, cells were pre-incubated with sample followed by agonist challenge at the EC80 concentration. Media was aspirated from cells and replaced with 10 μL 1:1 HBSS/HEPES:cAMP XS+ Ab reagent. 5 μL of 4× compound was added to the cells and incubated at 37° C. or RT for 30 min. 5 μL of 4×EC80 agonist was added to the cells and incubated at 37° C. or RT for 30 or 60 min. For Gi coupled GPCRs, EC80 forskolin was included. […] Microplates were read following signal generation with a PerkinElmer Envision™ instrument for chemiluminescent signal detection. Compound activity was analyzed using CBIS data analysis suite (ChemInnovation, CA). For Gs agonist mode assays, percentage activity was calculated using the following equation:
# CHRM1 = biological target: T3, CHRM1 (Homo sapiens, UniProt P11229); assay: Calcium Flux CHRM1 Agonist; conditions: for Emax: read-out: Max response
# T3 sequence (P11229 1-460): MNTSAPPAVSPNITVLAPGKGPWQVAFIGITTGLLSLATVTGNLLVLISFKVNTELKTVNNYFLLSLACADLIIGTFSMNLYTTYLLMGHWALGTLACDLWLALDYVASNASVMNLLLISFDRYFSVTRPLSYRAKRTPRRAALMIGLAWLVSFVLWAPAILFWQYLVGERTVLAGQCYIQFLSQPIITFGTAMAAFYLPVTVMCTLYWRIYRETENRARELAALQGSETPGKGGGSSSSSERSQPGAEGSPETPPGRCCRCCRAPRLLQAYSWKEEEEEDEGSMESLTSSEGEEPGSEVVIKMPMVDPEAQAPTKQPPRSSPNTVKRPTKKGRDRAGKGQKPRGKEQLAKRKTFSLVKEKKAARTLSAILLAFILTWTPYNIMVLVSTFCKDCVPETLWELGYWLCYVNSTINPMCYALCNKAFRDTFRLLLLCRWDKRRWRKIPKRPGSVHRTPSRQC
# Description: (§1) In vitro pharmacological profiling of compounds was done against 78 functional assays for 47 common off-targets (30) by Eurofins DiscoverX Corporation (Fremont, CA, USA) using their SAFETYscan E/IC50 ELECT service (Cat Ref 87-1003DR, Safety47 Panel Dose Response). […] Compounds were tested in a range of 10 concentrations, following a 3-fold serial dilution, starting from 10 μM. The assays were performed utilizing the PathHunter enzyme fragment complementation (EFC) technology, FLIPR®-based cellular screening assays, and KINOMEscan kinase binding assays.
# (§2) Prior to testing, cells (10,000 cells/well) were expanded from freezer stocks and seeded into a total volume of 50 μL into black walled, clear-bottom, Poly-D-lysine coated 384-well microplates and incubated at 37° C. […] Assays were performed in 1× dye loading buffer consisting of 1× Dye (DiscoverX, Calcium No Wash^PLUS kit, Catalog No. 90-0091), 1× Additive A and 2.5 mM Probenecid in HBSS/20 mM HEPES. Probenecid was prepared fresh. Prior to testing, media was aspirated from cells and replaced with 25 μL dye loading buffer. Cells were incubated for 45 min at 37° C. and then 20 min at RT. For agonist determination, 25 μL of 2× compound in HBSS/20 mM HEPES was added using a FLIPR Tetra (MDS). For antagonist determination, cells were pre-incubated with sample followed by agonist challenge at the EC80 concentration. 25 μL of 2× sample was added and cells were incubated for 30 min at RT in the dark to equilibrate plate temperature. After incubation, antagonist determination was initiated by addition of 25 μL of 1× compound with 3×EC80 agonist using FLIPR. For both agonist and antagonist formats, activity was measure on a FLIPR Tetra (MDS). Calcium mobilization was monitored for 2 min with a 5 sec baseline read.
# (§3) FLIPR read—Area under the curve, was calculated for the entire 2 min read. Compound activity was analysed using CBIS data analysis suite (ChemInnovation, CA).
# ADRA1A = biological target: T4, ADRA1A (Homo sapiens, UniProt P35348); assay: Calcium Flux ADRA1A Agonist; conditions: for Emax: read-out: Max response
# T4 sequence (P35348 1-466): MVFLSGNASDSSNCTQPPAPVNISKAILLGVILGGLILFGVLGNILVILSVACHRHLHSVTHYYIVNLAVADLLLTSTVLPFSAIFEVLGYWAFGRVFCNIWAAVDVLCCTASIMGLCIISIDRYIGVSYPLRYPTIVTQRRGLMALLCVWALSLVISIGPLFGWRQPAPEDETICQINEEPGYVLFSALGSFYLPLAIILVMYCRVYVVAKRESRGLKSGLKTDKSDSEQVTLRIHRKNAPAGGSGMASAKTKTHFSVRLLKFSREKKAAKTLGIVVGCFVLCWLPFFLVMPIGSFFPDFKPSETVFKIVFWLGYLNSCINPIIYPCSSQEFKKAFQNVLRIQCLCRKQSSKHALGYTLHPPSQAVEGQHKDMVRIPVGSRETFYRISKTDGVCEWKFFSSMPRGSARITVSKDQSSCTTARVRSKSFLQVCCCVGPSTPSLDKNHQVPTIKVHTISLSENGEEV
# Description: as §1, §2, §3
# HTR2A = HTR2A (Homo sapiens, UniProt P28223); assay: Calcium Flux HTR2A Antagonist; conditions: for Emax: read-out: Max response
# Chain of HTR2A (P28223 whole entry): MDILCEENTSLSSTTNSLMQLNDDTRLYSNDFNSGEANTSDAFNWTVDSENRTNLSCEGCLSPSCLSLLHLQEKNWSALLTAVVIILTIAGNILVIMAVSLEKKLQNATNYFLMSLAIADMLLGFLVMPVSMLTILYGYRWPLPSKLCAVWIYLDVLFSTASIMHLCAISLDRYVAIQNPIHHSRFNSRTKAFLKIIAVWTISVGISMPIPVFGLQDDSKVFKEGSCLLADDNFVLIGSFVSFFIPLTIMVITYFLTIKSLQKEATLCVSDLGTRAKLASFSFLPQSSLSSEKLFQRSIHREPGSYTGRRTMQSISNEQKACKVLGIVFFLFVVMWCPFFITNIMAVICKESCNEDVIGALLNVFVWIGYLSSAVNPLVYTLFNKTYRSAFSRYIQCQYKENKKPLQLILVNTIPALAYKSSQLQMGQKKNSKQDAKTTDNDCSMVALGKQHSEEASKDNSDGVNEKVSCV
# Description: as §1, §2, §3
SMILES,EC50 (EDNRA; Calcium Flux EDNRA Agonist),Emax (EDNRA),Emax (GABAA),IC50 (PDE4D2; Enzymatic PDE4D2 Inhibitor),Emax (PDE4D2),EC50 (OPRM1),Emax (OPRM1),EC50 (CHRM1),Emax (CHRM1),EC50 (ADRA1A),Emax (ADRA1A),IC50 (HTR2A),Emax (HTR2A),Emax (EDNRA; Calcium Flux EDNRA Agonist),Emax (PDE4D2; Enzymatic PDE4D2 Inhibitor)
"CC(C)(C)c1ccc(C#CC(O)c2ccccc2)cc1 (racemic) [Compound 3.3, rac-3-(4-(tert-butyl)phenyl)-1-phenylprop-2-yn-1-ol]",> 10 µM,0%,8.7%,> 10 µM,0%,> 10 µM,0%,> 10 µM,1.8%,> 10 µM,0.6%,> 10 µM,0%,,
"Clc1cccc(C#Cc2n[nH]c3ncccc23)c1 [Compound 10.1, 3-((3-chlorophenyl)ethynyl)-1H-pyrazolo[3,4-b]pyridine]",> 10 µM,,5.2%,> 10 µM,,> 10 µM,9.9%,> 10 µM,1.8%,> 10 µM,0.6%,> 10 µM,0%,1.8%,2.7%
